Tested on: lung function
Assay: Example 1: percent predicted FVC change from baseline
Assay type: in vivo, human
Details: mean (SD)
Description: Change From Baseline in Percent Predicted Forced Vital Capacity (FVC) at Each Specified Time Points. FVC was the total amount of air (in liters) exhaled from the lungs during the lung function test measured by spirometer which assessed the change in lung function related to the disease status. Baseline value was defined as valid and last non-missing value obtained within 28 days prior to participant receiving first study medication. EOT visit was performed within 3 days after the participant's last dose of study drug. […] Analysis was performed on mITT population. Here, ‘number analyzed’=participants with available data for each specified category. Here, ‘0’ in the number analyzed field signifies that none of the participants were available for the analysis at the specified time points.

## CC(C)NC(=O)COc1cccc(-c2nc(Nc3ccc4[nH]ncc4c3)c3ccccc3n2)c1 [Belumosudil, 2-{3-[4-(1H-indazol-5-ylamino)-2-quinazolinyl]phenoxy}-N-(propan-2-yl) acetamide]
Cohort 1: 200 mg QD, Cycle 3, Day 1
  Change From Baseline in Percent Predicted Forced Vital Capacity (FVC): 0.5 (3.8) percent predicted FVC
Cohort 1: 200 mg QD, Cycle 5, Day 1
  Change From Baseline in Percent Predicted Forced Vital Capacity (FVC): −0.5 (7.1) percent predicted FVC
Cohort 1: 200 mg QD, Cycle 7, Day 1
  Change From Baseline in Percent Predicted Forced Vital Capacity (FVC): −2.9 (5.2) percent predicted FVC
Cohort 1: 200 mg QD, Cycle 9, Day 1
  Change From Baseline in Percent Predicted Forced Vital Capacity (FVC): 0.4 (5.1) percent predicted FVC
Cohort 1: 200 mg QD, Cycle 11, Day 1
  Change From Baseline in Percent Predicted Forced Vital Capacity (FVC): −1.1 (7.3) percent predicted FVC
Cohort 1: 200 mg QD, Cycle 12, Day 1
  Change From Baseline in Percent Predicted Forced Vital Capacity (FVC): 2.0 (—) percent predicted FVC
Cohort 1: 200 mg QD, Cycle 13, Day 1
  Change From Baseline in Percent Predicted Forced Vital Capacity (FVC): −2.4 (7.9) percent predicted FVC
Cohort 1: 200 mg QD, Cycle 14, Day 1
  Change From Baseline in Percent Predicted Forced Vital Capacity (FVC): 11.0 (—) percent predicted FVC
Cohort 1: 200 mg QD, Cycle 15, Day 1
  Change From Baseline in Percent Predicted Forced Vital Capacity (FVC): −3.7 (10.4) percent predicted FVC
Cohort 1: 200 mg QD, Cycle 16, Day 1
  Change From Baseline in Percent Predicted Forced Vital Capacity (FVC): 16.0 (—) percent predicted FVC
Cohort 1: 200 mg QD, Cycle 17, Day 1
  Change From Baseline in Percent Predicted Forced Vital Capacity (FVC): −3.2 (6.3) percent predicted FVC
Cohort 1: 200 mg QD, Cycle 19, Day 1
  Change From Baseline in Percent Predicted Forced Vital Capacity (FVC): −2.3 (6.8) percent predicted FVC
Cohort 1: 200 mg QD, Cycle 21, Day 1
  Change From Baseline in Percent Predicted Forced Vital Capacity (FVC): −3.2 (8.1) percent predicted FVC
Cohort 1: 200 mg QD, Cycle 23, Day 1
  Change From Baseline in Percent Predicted Forced Vital Capacity (FVC): 0.0 (12.3) percent predicted FVC
Cohort 1: 200 mg QD, Cycle 24, Day 1
  Change From Baseline in Percent Predicted Forced Vital Capacity (FVC): 4.0 (—) percent predicted FVC
Cohort 1: 200 mg QD, Cycle 25, Day 1
  Change From Baseline in Percent Predicted Forced Vital Capacity (FVC): −7.0 (11.3) percent predicted FVC
Cohort 1: 200 mg QD, Cycle 26, Day 1
  Change From Baseline in Percent Predicted Forced Vital Capacity (FVC): 4.0 (—) percent predicted FVC
Cohort 1: 200 mg QD, Cycle 27, Day 1
  Change From Baseline in Percent Predicted Forced Vital Capacity (FVC): −2.0 (4.2) percent predicted FVC
Cohort 1: 200 mg QD, Cycle 29, Day 1
  Change From Baseline in Percent Predicted Forced Vital Capacity (FVC): 2.5 (4.9) percent predicted FVC
Cohort 1: 200 mg QD, Cycle 30, Day 1
  Change From Baseline in Percent Predicted Forced Vital Capacity (FVC): 4.0 (—) percent predicted FVC
Cohort 1: 200 mg QD, Cycle 31, Day 1
  Change From Baseline in Percent Predicted Forced Vital Capacity (FVC): 1.5 (3.5) percent predicted FVC
Cohort 1: 200 mg QD, Cycle 32, Day 1
  Change From Baseline in Percent Predicted Forced Vital Capacity (FVC): 2.0 (—) percent predicted FVC
Cohort 1: 200 mg QD, Cycle 33, Day 1
  Change From Baseline in Percent Predicted Forced Vital Capacity (FVC): 11.0 (0.0) percent predicted FVC
Cohort 1: 200 mg QD, Cycle 34, Day 1
  Change From Baseline in Percent Predicted Forced Vital Capacity (FVC): 6.0 (—) percent predicted FVC
Cohort 1: 200 mg QD, Cycle 35, Day 1
  Change From Baseline in Percent Predicted Forced Vital Capacity (FVC): 11.0 (5.7) percent predicted FVC
Cohort 1: 200 mg QD, Cycle 36, Day 1
  Change From Baseline in Percent Predicted Forced Vital Capacity (FVC): 5.0 (—) percent predicted FVC
Cohort 1: 200 mg QD, Cycle 48, Day 1
  Change From Baseline in Percent Predicted Forced Vital Capacity (FVC): 5.0 (—) percent predicted FVC
Cohort 1: 200 mg QD, Cycle 49, Day 1
  Change From Baseline in Percent Predicted Forced Vital Capacity (FVC): 6.0 (—) percent predicted FVC
Cohort 1: 200 mg QD, Cycle 51, Day 1
  Change From Baseline in Percent Predicted Forced Vital Capacity (FVC): 9.0 (—) percent predicted FVC
Cohort 1: 200 mg QD, Cycle 52, Day 1
  Change From Baseline in Percent Predicted Forced Vital Capacity (FVC): 3.0 (—) percent predicted FVC
Cohort 1: 200 mg QD, Cycle 53, Day 1
  Change From Baseline in Percent Predicted Forced Vital Capacity (FVC): 8.0 (—) percent predicted FVC
Cohort 1: 200 mg QD, Cycle 54, Day 1
  Change From Baseline in Percent Predicted Forced Vital Capacity (FVC): 5.0 (—) percent predicted FVC
Cohort 1: 200 mg QD, Cycle 55, Day 1
  Change From Baseline in Percent Predicted Forced Vital Capacity (FVC): 13.0 (—) percent predicted FVC
Cohort 1: 200 mg QD, Cycle 56, Day 1
  Change From Baseline in Percent Predicted Forced Vital Capacity (FVC): 7.0 (—) percent predicted FVC
Cohort 1: 200 mg QD, Cycle 57, Day 1
  Change From Baseline in Percent Predicted Forced Vital Capacity (FVC): 14.0 (—) percent predicted FVC
Cohort 1: 200 mg QD, Cycle 58, Day 1
  Change From Baseline in Percent Predicted Forced Vital Capacity (FVC): 7.0 (—) percent predicted FVC
Cohort 1: 200 mg QD, Cycle 60, Day 1
  Change From Baseline in Percent Predicted Forced Vital Capacity (FVC): 8.0 (—) percent predicted FVC
Cohort 1: 200 mg QD, Cycle 61, Day 1
  Change From Baseline in Percent Predicted Forced Vital Capacity (FVC): 12.0 (—) percent predicted FVC
Cohort 1: 200 mg QD, Cycle 62, Day 1
  Change From Baseline in Percent Predicted Forced Vital Capacity (FVC): 5.0 (—) percent predicted FVC
Cohort 1: 200 mg QD, Cycle 63, Day 1
  Change From Baseline in Percent Predicted Forced Vital Capacity (FVC): 12.0 (—) percent predicted FVC
Cohort 1: 200 mg QD, Cycle 67, Day 1
  Change From Baseline in Percent Predicted Forced Vital Capacity (FVC): 14.0 (—) percent predicted FVC
Cohort 1: 200 mg QD, EOT
  Change From Baseline in Percent Predicted Forced Vital Capacity (FVC): −2.5 (10.3) percent predicted FVC
Cohort 2: 200 mg BID, Cycle 3, Day 1
  Change From Baseline in Percent Predicted Forced Vital Capacity (FVC): −2.4 (6.0) percent predicted FVC
Cohort 2: 200 mg BID, Cycle 5, Day 1
  Change From Baseline in Percent Predicted Forced Vital Capacity (FVC): −4.3 (5.2) percent predicted FVC
Cohort 2: 200 mg BID, Cycle 7, Day 1
  Change From Baseline in Percent Predicted Forced Vital Capacity (FVC): −1.3 (6.4) percent predicted FVC
Cohort 2: 200 mg BID, Cycle 8, Day 1
  Change From Baseline in Percent Predicted Forced Vital Capacity (FVC): 2.0 (—) percent predicted FVC
Cohort 2: 200 mg BID, Cycle 9, Day 1
  Change From Baseline in Percent Predicted Forced Vital Capacity (FVC): −2.9 (5.5) percent predicted FVC
Cohort 2: 200 mg BID, Cycle 10, Day 1
  Change From Baseline in Percent Predicted Forced Vital Capacity (FVC): −5.0 (8.5) percent predicted FVC
Cohort 2: 200 mg BID, Cycle 11, Day 1
  Change From Baseline in Percent Predicted Forced Vital Capacity (FVC): −2.7 (5.6) percent predicted FVC
Cohort 2: 200 mg BID, Cycle 12, Day 1
  Change From Baseline in Percent Predicted Forced Vital Capacity (FVC): 1.0 (—) percent predicted FVC

— patent US20260027116A1, “Methods of Treating Chronic Graft-Versus-Host Disease Following Allogeneic Hematopoietic Stem Cell Transplantation” (Kadmon Corporation, LLC, priority 2022, published 2026)
